According to patent US20080114027A1, “Method for treating delirium” (priority 2006, published 2008):

Key:
PDE-10 = PDE-10 (Homo sapiens, UniProt Q9Y233); details: cited from earlier work
rat tail-flick model = assay: Anti-nociceptive pain testing, rat tail-flick model; format: in vivo, Male Sprague-Dawley (CD) rats; details: 7.5 mg/kg i.p., magnitude and duration similar to morphine 1.3 mg/kg s.c., FIG. 1
PDE-3 = details: cited from earlier work
PDE-11 = PDE-11 (Homo sapiens, UniProt Q9HCR9); details: cited from earlier work
PDE-11, sequence (Q9HCR9 whole entry): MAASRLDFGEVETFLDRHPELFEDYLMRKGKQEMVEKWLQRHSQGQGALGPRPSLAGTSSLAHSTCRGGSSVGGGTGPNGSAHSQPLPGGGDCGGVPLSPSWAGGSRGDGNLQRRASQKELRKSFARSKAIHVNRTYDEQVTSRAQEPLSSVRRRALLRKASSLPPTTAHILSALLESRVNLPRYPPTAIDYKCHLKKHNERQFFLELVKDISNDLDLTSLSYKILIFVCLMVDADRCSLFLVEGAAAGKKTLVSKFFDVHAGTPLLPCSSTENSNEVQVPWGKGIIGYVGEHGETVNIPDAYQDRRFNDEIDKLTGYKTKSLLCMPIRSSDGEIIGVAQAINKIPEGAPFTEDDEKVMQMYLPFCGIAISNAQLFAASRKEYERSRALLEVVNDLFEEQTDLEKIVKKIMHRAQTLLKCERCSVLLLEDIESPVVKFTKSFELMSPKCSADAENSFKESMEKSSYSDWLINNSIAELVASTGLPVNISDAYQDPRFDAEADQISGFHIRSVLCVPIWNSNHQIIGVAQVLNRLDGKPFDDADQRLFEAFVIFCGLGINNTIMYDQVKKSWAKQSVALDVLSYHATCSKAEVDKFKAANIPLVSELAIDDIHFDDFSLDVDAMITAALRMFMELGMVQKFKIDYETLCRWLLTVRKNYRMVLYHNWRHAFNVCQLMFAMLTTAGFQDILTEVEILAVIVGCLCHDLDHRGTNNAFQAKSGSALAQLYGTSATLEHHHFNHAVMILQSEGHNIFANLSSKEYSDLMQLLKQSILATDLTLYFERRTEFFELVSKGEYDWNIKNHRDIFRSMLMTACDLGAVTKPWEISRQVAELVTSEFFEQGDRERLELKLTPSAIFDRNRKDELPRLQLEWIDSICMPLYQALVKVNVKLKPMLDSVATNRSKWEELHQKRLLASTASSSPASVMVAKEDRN

PDE-4 = details: cited from earlier work

PDE-10, sequence (Q9Y233 whole entry): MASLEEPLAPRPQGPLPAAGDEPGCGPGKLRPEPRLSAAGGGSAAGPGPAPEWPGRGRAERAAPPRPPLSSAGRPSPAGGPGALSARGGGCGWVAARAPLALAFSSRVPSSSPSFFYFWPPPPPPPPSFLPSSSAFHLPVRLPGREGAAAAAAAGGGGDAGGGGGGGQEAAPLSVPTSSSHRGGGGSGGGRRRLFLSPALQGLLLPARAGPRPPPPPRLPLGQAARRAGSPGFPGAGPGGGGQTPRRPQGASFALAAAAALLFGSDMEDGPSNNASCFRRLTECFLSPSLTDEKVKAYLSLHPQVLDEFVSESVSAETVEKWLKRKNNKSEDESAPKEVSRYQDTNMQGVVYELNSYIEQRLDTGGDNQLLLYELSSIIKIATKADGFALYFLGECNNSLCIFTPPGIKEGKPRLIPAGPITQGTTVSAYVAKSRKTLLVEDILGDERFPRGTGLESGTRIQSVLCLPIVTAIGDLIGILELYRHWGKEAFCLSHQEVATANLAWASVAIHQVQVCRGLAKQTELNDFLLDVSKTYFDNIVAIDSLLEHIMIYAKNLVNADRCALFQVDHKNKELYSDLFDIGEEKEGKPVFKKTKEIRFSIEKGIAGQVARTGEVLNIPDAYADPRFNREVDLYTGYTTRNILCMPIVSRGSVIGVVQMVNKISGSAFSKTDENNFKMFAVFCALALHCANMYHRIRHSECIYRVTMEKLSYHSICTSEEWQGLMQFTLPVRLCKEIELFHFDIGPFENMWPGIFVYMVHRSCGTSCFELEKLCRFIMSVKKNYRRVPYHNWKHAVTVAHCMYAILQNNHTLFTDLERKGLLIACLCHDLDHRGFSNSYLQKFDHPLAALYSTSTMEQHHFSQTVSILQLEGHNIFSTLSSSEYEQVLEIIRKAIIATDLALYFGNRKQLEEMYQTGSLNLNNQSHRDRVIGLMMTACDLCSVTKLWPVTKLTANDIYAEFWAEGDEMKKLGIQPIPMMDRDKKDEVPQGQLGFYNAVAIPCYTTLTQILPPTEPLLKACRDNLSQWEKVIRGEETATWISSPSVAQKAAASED

CC(C)C(=O)c1c(C(C)C)nn2ccccc12 [ibudilast, 2-methyl-1-(2-(1-methylethyl)pyrazolo(1,5-a)pyridin-3-yl)1-propanone]
PDE inhibitory activity (PDE-10): most active
acute analgesic efficacy (tail-flick latency time) (rat tail-flick model): increased the latency time
PDE inhibitory activity (PDE-3): most active
PDE inhibitory activity (PDE-11): most active
PDE inhibitory activity (PDE-4): most active
